Experimental data reported in ChEMBL document CHEMBL1201862, “PubChem BioAssay data set” (2004).
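Each compound was tested at five concentrations against cells in 96-well plates for 48 hours. GI50 marks 50% less growth.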 Activity calls are given as the source filed them. No stated cut-off is given here; in the data, active = GI50 up to about 1.1 µM and inactive = higher.

Columns and labels:
Test in all cases: NCI-60 cell line screen, 48 h
MCF7 = tested on: MCF7
RPMI-8226 = tested on: RPMI-8226
MOLT-4 = tested on: MOLT-4
HOP-62 = tested on: HOP-62
T47D = tested on: T47D
K562 = tested on: K562
MDA-MB-435 = tested on: MDA-MB-435
OVCAR-3 = tested on: OVCAR-3
U-251 = tested on: U-251
HL-60 = tested on: HL-60
PC-3 = tested on: PC-3
SF-539 = tested on: SF-539
SF-268 = tested on: SF-268
HOP-92 = tested on: HOP-92
LOX IMVI = tested on: LOX IMVI
SK-OV-3 = tested on: SK-OV-3
EKVX = tested on: EKVX
NCI-H460 = tested on: NCI-H460
HCC 2998 = tested on: HCC 2998
NCI-H522 = tested on: NCI-H522

Measured: GI50

N#Cc1cc(Sc2ccc(N)c(C#N)c2)ccc1N
inactive: MCF7 15.8 µM | RPMI-8226 12.8 µM | MOLT-4 25.4 µM | HOP-62 41.9 µM | T47D 29 µM | K562 3.44 µM | MDA-MB-435 2.55 µM | OVCAR-3 34.7 µM | U-251 29.3 µM | HL-60 1.87 µM | PC-3 22.8 µM | SF-539 11.1 µM | SF-268 18 µM | HOP-92 21.7 µM | LOX IMVI 15.8 µM | SK-OV-3 23.1 µM | EKVX 16 µM | NCI-H460 15.5 µM

COC(=O)/C=C(/C)n1nc2ccccc2n1
inactive: MCF7 > 100 µM | RPMI-8226 22.4 µM | HCC 2998 > 100 µM | MOLT-4 > 100 µM | HOP-62 > 100 µM | T47D > 100 µM | K562 > 100 µM | MDA-MB-435 > 100 µM | OVCAR-3 > 100 µM | U-251 > 100 µM | PC-3 > 100 µM | SF-268 > 100 µM | NCI-H522 > 100 µM | SK-OV-3 > 100 µM | EKVX 37.7 µM | NCI-H460 > 100 µM

COc1cc(CSc2ccc(O)cc2)cc(OC)c1OC
inactive: MCF7 4.31 µM | RPMI-8226 21.3 µM | MOLT-4 25.5 µM | HOP-62 49.7 µM | T47D 22.6 µM | K562 38 µM | MDA-MB-435 27.6 µM | OVCAR-3 41.6 µM | U-251 29.2 µM | HL-60 20.4 µM | PC-3 27.4 µM | SF-539 53.3 µM | SF-268 53.3 µM | NCI-H522 29.3 µM | HOP-92 19.3 µM | LOX IMVI 59.8 µM | SK-OV-3 62.2 µM | EKVX 39.8 µM | NCI-H460 37.6 µM

CN1C(=O)C(CC=O)(C(C)(C)C)c2ccccc21 (configuration not stated)
inactive: MCF7 69.7 µM | RPMI-8226 37.9 µM | HCC 2998 > 100 µM | MOLT-4 56.8 µM | HOP-62 > 100 µM | T47D 47.1 µM | K562 91.6 µM | MDA-MB-435 30.8 µM | OVCAR-3 > 100 µM | U-251 > 100 µM | HL-60 > 100 µM | PC-3 > 100 µM | SF-268 > 100 µM | HOP-92 69 µM | LOX IMVI 37.8 µM | SK-OV-3 > 100 µM | NCI-H460 > 100 µM

CC1(C)C2CC(=O)C1(C)C(OCc1ccccc1)C2 (configuration not stated)
inactive: MCF7 64.7 µM | RPMI-8226 27.7 µM | HCC 2998 59.8 µM | MOLT-4 16.3 µM | HOP-62 86.1 µM | T47D 40.4 µM | K562 22.2 µM | MDA-MB-435 47 µM | OVCAR-3 62.7 µM | U-251 48.3 µM | HL-60 24.4 µM | PC-3 34.4 µM | SF-539 > 100 µM | SF-268 > 100 µM | NCI-H522 22.2 µM | LOX IMVI 22.1 µM | SK-OV-3 54.8 µM | EKVX > 100 µM | NCI-H460 33.3 µM

COc1ccccc1N/C(=C\C(=O)C(=O)NC12CC3CC(CC(C3)C1)C2)c1ccccc1
inactive: MCF7 > 10 µM | RPMI-8226 > 10 µM | HCC 2998 > 10 µM | MOLT-4 > 10 µM | HOP-62 > 10 µM | T47D > 10 µM | K562 > 10 µM | MDA-MB-435 7.21 µM | OVCAR-3 5.31 µM | U-251 > 10 µM | HL-60 > 10 µM | PC-3 7.55 µM | SF-539 > 10 µM | SF-268 > 10 µM | NCI-H522 > 10 µM | LOX IMVI > 10 µM | SK-OV-3 > 10 µM | EKVX > 10 µM | NCI-H460 > 10 µM

Cn1c(=O)cc(NCCc2ccccc2)[nH]c1=O
inactive: MCF7 19.7 µM | RPMI-8226 6.12 µM | HCC 2998 27.8 µM | MOLT-4 35.2 µM | HOP-62 30 µM | T47D 54.5 µM | K562 19.1 µM | MDA-MB-435 5.46 µM | OVCAR-3 16.1 µM | U-251 61.1 µM | HL-60 > 10 µM | PC-3 13 µM | SF-539 39.4 µM | SF-268 > 100 µM | HOP-92 > 100 µM | LOX IMVI 46.6 µM | SK-OV-3 53.6 µM | EKVX 54.7 µM | NCI-H460 34.2 µM

CNc1ncnc2c1nc(NC1CCCC1)n2C1OC(CO)C(O)C1O (configuration not stated)
inactive: MCF7 > 100 µM | HCC 2998 > 100 µM | MOLT-4 > 100 µM | HOP-62 > 100 µM | T47D > 100 µM | MDA-MB-435 > 100 µM | OVCAR-3 > 100 µM | U-251 > 100 µM | PC-3 > 100 µM | SF-539 > 100 µM | SF-268 > 100 µM | NCI-H522 > 100 µM | HOP-92 > 100 µM | SK-OV-3 > 100 µM | NCI-H460 > 100 µM
